Data on 22 compounds can be found in patent publication US9029563B2, “Substituted 1-benzylindolin-2-one analogs as positive allosteric modulators of muscarinic acetylcholine M1 receptors” (Vanderbilt University, priority 2012, dated 2015).

pEC50: −log10 of the molar value.

In this assay the target is T1, mAChR M1 (UniProt P08482).
T1 sequence (P08482 1-460): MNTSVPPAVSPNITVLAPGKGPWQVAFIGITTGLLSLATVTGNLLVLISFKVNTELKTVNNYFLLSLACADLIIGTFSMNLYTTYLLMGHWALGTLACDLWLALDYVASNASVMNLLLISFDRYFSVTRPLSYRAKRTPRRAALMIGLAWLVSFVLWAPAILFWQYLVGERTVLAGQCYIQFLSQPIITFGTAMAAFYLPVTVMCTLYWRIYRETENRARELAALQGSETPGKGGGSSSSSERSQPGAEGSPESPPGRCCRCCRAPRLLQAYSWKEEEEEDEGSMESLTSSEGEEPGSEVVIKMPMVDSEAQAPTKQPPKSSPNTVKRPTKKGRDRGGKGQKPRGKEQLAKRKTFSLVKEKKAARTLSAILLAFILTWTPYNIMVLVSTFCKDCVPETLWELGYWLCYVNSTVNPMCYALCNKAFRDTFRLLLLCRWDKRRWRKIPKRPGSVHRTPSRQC
Briefly: mAChR M1 cell-based functional assay (calcium mobilization, PAM mode). Conditions: for Emax: Percent of AChmax activity in presence of 30 μM test compound; for pEC50: potentiation of EC20 acetylcholine response, calcium flux in CHO-K1 cells expressing mAChR M1, >10 μM is estimated for low potency compounds without plateau. From the text: Chinese hamster ovary (CHO-K1) cells stably expressing rat (r)M1 were purchased from the American Type Culture Collection and cultured according to their indicated protocol. CHO cells stably expressing human (h)M2, hM3, and hM5 were described previously (Levey et al., 1991); hM1 and hM4 cDNAs were purchased from Missouri S&T cDNA Resource; rM4 cDNA was provided by T. I. Bonner (National Institutes of Health, Bethesda, Md.). rM2 and rM3 were cloned from a rat brain cDNA library and sequence verified. hM1, rM2, rM3, hM4, and rM4 cDNAs were used to stably transfect CHO-K1 cells purchased from the American Type Culture Collection using Lipofectamine-2000. To make stable rM2, hM2, hM4, and rM4 cell lines for use in calcium mobilization assays, these cells also were stably transfected with a chimeric G-protein (Gqi5) (provided by B.R. Conklin, University of California, San Francisco) using Lipofectamine 2000. rM1, hM1, rM3, hM3, rM5, and hM5 cells were grown in Ham's F-12 medium containing 10% heat-inactivated fetal bovine serum (FBS), 20 mM HEPES, and 50 μg/mL G418 sulfate. rM2-Gqi5, hM2-Gqi5, and hM4-Gqi5 cells were grown in the same medium also containing 500 μg/mL Hygromycin B. Stable rM4-Gqi5 cells were grown in DMEM containing 10% heat-inactivated FBS, 20 mM HEPES, 400 μg/mL G418 sulfate, and 500 μg/mL Hygromycin B.
For high throughput measurement of agonist-evoked increases in intracellular calcium, CHO-K1 cells stably expressing muscarinic receptors were plated in growth medium lacking G418 and hygromycin at 15,000 cells/20 μL/well in Greiner 384-well black-walled, tissue culture (TC)-treated, clear-bottom plates (VWR). Cells were incubated overnight at 37° C. and 5% CO2. The next day, cells were washed using an ELX 405 (BioTek) with four washes (80 μL) of assay buffer then aspirated to 20 μL. Next, 20 μL of 16 μM Fluo-4/acetoxymethyl ester (Invitrogen, Carlsbad, Calif.) prepared as a 2.3 mM stock in DMSO and mixed in a 1:1 ratio with 10% (w/v) Pluronic F-127 and diluted in assay buffer was added to the wells and the cell plates were incubated for 50 min at 37° C. and 5% CO2. Dye was removed by washing with the ELX 405 (four 80 μL washes of assay buffer) then aspirated to 20 μL. Compound master plates were formatted in an 11 point CRC format (1:3 dilutions) in 100% DMSO with a starting concentration of 10 mM using the BRAVO liquid handler (Agilent). Test compound CRCs were then transferred to daughter plates (240 nL) using the Echo acoustic plate reformatter (Labcyte, Sunnyvale, Calif.) and then diluted into assay buffer (40 μL) to a 2× stock using a Thermo Fisher Combi (Thermo Fisher Scientific, Waltham, Mass.).
Calcium flux was measured using the Functional Drug Screening System (FDSS) 6000 (Hamamatsu Corporation, Tokyo, Japan) as an increase in the fluorescent static ratio. Compounds were applied to cells (20 μL, 2×) using the automated system of the FDSS 6000 at 4 s into the 300 s protocol and the data were collected at 1 Hz. At 144 s into the 300 s protocol, 10 μL of an EC20 concentration of the muscarinic receptor agonist acetylcholine was added (5×), followed by the addition of 12 μL an EC80 concentration of acetylcholine at the 230 s time point (5×). Agonist activity was analyzed as a concentration-dependent increase in calcium mobilization upon compound addition. Positive allosteric modulator activity was analyzed as a concentration-dependent increase in the EC20 acetylcholine response. Antagonist activity was analyzed as a concentration-dependent decrease in the EC80 acetylcholine response. Concentration-response curves were generated using a four-parameter logistical equation in XLFit curve fitting software (IDBS, Bridgewater, N.J.) for Excel (Microsoft, Redmond, Wash.) or Prism (GraphPad Software, Inc., San Diego, Calif.).
The calcium mobilization assay was also used to determine “efficacy”. […]

For the compound `CCn1cc(-c2ccc(CN3C(=O)C(O)(C(F)(F)F)c4ccccc43)c(F)c2)cn1` (stereo not shown) [Compound B14], the Emax – broadly, the size of the effect at its maximum, as opposed to the concentration needed – was 45% and the pEC50 (in general, −log10 of the EC50, conventionally taken in molar units) was less than 5.00.

On to `Cn1cc(-c2ccc(CN3C(=O)C(O)(C(F)(F)F)c4cc(F)ccc43)c(F)c2)cn1` (stereo not shown) [Compound B3], for which the Emax was determined as 35% and the pEC50 is 5.41. The like results for `Cn1cc(-c2ccc(CN3C(=O)C(O)(C(F)(F)F)c4ccccc43)c(F)c2)cn1` (stereo not shown) [Compound B6, 1-(2-fluoro-4-(1-methyl-1H-pyrazol-4-yl)benzyl)-3-hydroxy-3-(trifluoromethyl)indolin-2-one] were, in that order, 60% and 5.30.

Take `Cn1cc(-c2ccc(CN3C(=O)C(O)(C(F)(F)F)c4ccccc43)cn2)cn1` (stereo not shown) [Compound B17]: the Emax was 54% and the pEC50 is less than 5.00. With `Cn1cc(-c2ccc(CN3C(=O)C(C)(O)c4ccccc43)c(F)c2)cn1` (stereo not shown) [Compound B8, 1-(2-fluoro-4-(1-methyl-1H-pyrazol-4-yl)benzyl)-3-hydroxy-3-methylindolin-2-one], the maximal response (Emax) was determined as 52% and the pEC50 is less than 5.00. Consider `Cn1cc(-c2ccc(CN3C(=O)C(O)(C(F)(F)F)c4ccccc43)c(F)c2)cn1` (single isomer, unassigned) [Compound B18, 1-(2-fluoro-4-(1-methyl-1H-pyrazol-4-yl)benzyl)-3-hydroxy-3-(trifluoromethyl)indolin-2-one], for which the pEC50 is less than 4.52. For the compound `Cn1cc(-c2ccc(CN3C(=O)C(O)(C(F)(F)F)c4ccccc43)c(F)c2)cn1` (single isomer, unassigned) [Compound B2, 1-(2-fluoro-4-(1-methyl-1H-pyrazol-4-yl)benzyl)-3-hydroxy-3-(trifluoromethyl)indolin-2-one], the Emax is given as 68% and the pEC50 is 5.47. Take `CC(c1ccc(-c2cnn(C)c2)cc1F)N1C(=O)Cc2ccccc21` (stereo not shown) [Compound B24]: the Emax is on record as 44% and the pEC50 was less than 5.00.

Take `Cn1cc(-c2ccc(CN3C(=O)C(C)(N)c4ccccc43)cc2)cn1` (racemic) [Compound B15, 3-amino-3-methyl-1-(4-(1-methyl-1H-pyrazol-4-yl)benzyl)indolin-2-one]: the maximal effect (Emax) was found to be 28% and the negative-log EC50 (pEC50) is less than 5.00.

On to `Cn1cc(-c2ccc(CN3C(=O)C(O)(C(F)(F)F)c4ccccc43)cc2)cn1` (stereo not shown) [Compound B12], for which the Emax was found to be 63% and the pEC50 was less than 5.00. Taken in the same sequence, the figures for `Cn1cc(-c2ccc(CN3C(=O)C(O)(C(F)(F)F)c4ccccc43)c(Cl)c2)cn1` (stereo not shown) [Compound B10, 1-(2-chloro-4-(1-methyl-1H-pyrazol-4-yl)benzyl)-3-hydroxy-3-(trifluoromethyl)indolin-2-one] were 41% and less than 5.00. Regarding `Cn1cc(-c2ccc(CN3C(=O)C(O)(CF)c4ccccc43)c(F)c2)cn1` (stereo not shown) [Compound B4, 1-(2-fluoro-4-(1-methyl-1H-pyrazol-4-yl)benzyl)-3-(fluoromethyl)-3-hydroxyindolin-2-one], the Emax is listed as 52% and the pEC50 is 5.34. Consider `Cn1cc(-c2ccc(CN3C(=O)C(O)(C(F)(F)F)c4ccccc43)cc2F)cn1` (stereo not shown) [Compound B21], for which the Emax came out at 38% and the pEC50 was less than 5.00. Consider `CCCn1cc(-c2ccc(CN3C(=O)C(O)(C(F)(F)F)c4ccccc43)c(F)c2)cn1` (stereo not shown) [Compound B16], for which the Emax is listed as 31% and the pEC50 is less than 5.00. The like results for `Cn1cc(-c2ccc(CN3C(=O)C(O)(C(F)(F)F)c4ccccc43)cc2F)cn1` (stereo not shown) [Compound B11] were, in that order, 45% and less than 5.00.

As for `Cn1cc(-c2ccc(CN3C(=O)C(N)c4ccccc43)c(F)c2)cn1` (stereo not shown) [Compound B20], the maximal effect (Emax) came to 46% and the pEC50 was 5.87. The like results for `Cn1cc(-c2ccc(CN3C(=O)Cc4ccccc43)c(F)c2)cn1` [Compound B1] were, in that order, 75% and 5.59.

Consider `CC1C(=O)N(Cc2ccc(-c3cnn(C)c3)cc2F)c2ccccc21` (stereo not shown) [Compound B9], for which the Emax was determined as 55% and the pEC50 was less than 5.00.

With `Cc1n[nH]cc1-c1ccc(CN2C(=O)C(O)(C(F)(F)F)c3ccccc32)c(F)c1` (stereo not shown) [Compound B5], the Emax worked out at 37% and the pEC50 was 5.31.

On to `Cn1cc(-c2ccc(CN3C(=O)C(O)(C(F)(F)F)c4ccccc43)c(F)c2)cn1` (stereo not shown) [Compound B19], for which the Emax is reported as 54% and the pEC50 was 5.44. The like results for `CN(C)C1(C)C(=O)N(Cc2ccc(-c3cnn(C)c3)cc2)c2ccccc21` (racemic) [Compound B7, 3-(dimethylamino)-3-methyl-1-(4-(1-methyl-1H-pyrazol-4-yl)benzyl)indolin-2-one] were, in that order, 43% and 5.26. Take `CC(C)n1cc(-c2ccc(CN3C(=O)C(O)(C(F)(F)F)c4ccccc43)c(F)c2)cn1` (stereo not shown) [Compound B13]: the Emax was 38% and the pEC50 was less than 5.00.
